US10759822B2 (priority 2016, dated 2020)

Legend:
[1] = test system: field EPSP in the rat dentate gyrus; conditions: in vivo, ip; cited from earlier work
[2] = test system: 030418-induced acute death in mice; parameters: species or system KM mice; conditions: mouse, in vivo
[3] = mouse, in vivo
[4] = test system: 030418-induced respiratory depression rats; conditions: rat, in vivo
[5] = mouse, in vivo; remark: listed apart in the source
[6] = test system: hyperactivity induced by d-amphetamine; conditions: in vivo, ip, 2 mg/kg; cited from earlier work

Row | SMILES | (AUC0-t)prodrug group/(AUC0-t)prototype drug group [3] | (AUC0-t)prodrug/(AUC0-t)prototype drug [5] | also measured
1 | O=C(c1ccc2nccnc2c1)N1CCCCC1 [CX516, 6-(piperidin-1-yl-carbonyl)quinoxaline] |  |  | increase in the amplitude of the field EPSP [1]: 9%
2 | C/C(=C(\CCOC(=O)CCCC(=O)OC1CCC(N(C)C(=O)c2ccc3nonc3c2)CC1)SSCCC(C)C)N(C)C=O (stereo not drawn) [Compound 15, Pentanedioic acid anti-4-[(benzo[c][1,2,5]oxadiazole-5-carbonyl)-methyl-amino]-cyclohexyl ester 3-isopentyldisulfanyl-4-(formyl-methyl-amino)-pent-3-enyl ester] | 0.41 | 2.23 | survival rate of mice [2]: increase the survival rate of mice in a dose-dependent manner; molar dose for the same anti-lethal effect, relative to Compound a ([2]; sc, 15 mg/kg): one-eighth; antagonism toward the decreased respiratory rate and ventilation caused by 030418 [4]: dose-dependent antagonism; effect on respiratory rate and ventilation compared with Compound a [4]: same effect as Compound a (10 mg/kg)
3 | C/C(=C(\CCOC(=O)CCCC(=O)OC1CCC(N(C)C(=O)c2ccc3nonc3c2)CC1)SSCc1ccccc1)N(C)C=O (stereo not drawn) [Compound 16, Pentanedioic acid anti-4-[(benzo[c][1,2,5]oxadiazole-5-carbonyl)-methyl-amino]-cyclohexyl ester 3-benzyldisulfanyl-4-(formyl-methyl-amino)-pent-3-enyl ester] | 0.41 | 1.86 | 
4 | CCSS/C(CCOC(=O)CCCC(=O)OC1CCC(N(C)C(=O)c2ccc3nonc3c2)CC1)=C(/C)N(C=O)CC (stereo not drawn) [Compound 17, Pentanedioic acid anti-4-[(benzo[c][1,2,5]oxadiazole-5-carbonyl)-methyl-amino]-cyclohexyl ester 3-ethyldisulfanyl-4-(formyl-ethyl-amino)-pent-3-enyl ester] | 0.61 | 1.55 | 
5 | CCCN(C=O)/C(C)=C(/CCOC(=O)CCCC(=O)OC1CCC(N(C)C(=O)c2ccc3nonc3c2)CC1)SSCC (stereo not drawn) [Compound 18, Pentanedioic acid anti-4-[(benzo[c][1,2,5]oxadiazole-5-carbonyl)-methyl-amino]-cyclohexyl ester 3-ethyldisulfanyl-4-(formyl-propyl-amino)-pent-3-enyl ester] | 0.73 | 1.70 | 
6 | C/C(=C(\CCOC(=O)CCCC(=O)OC1CCC(N(C)C(=O)c2ccc3nonc3c2)CC1)SSCCC(C)C)N(C=O)CC(=O)OCC1OC(O)C(O)C(O)C1O [Compound 19, Pentanedioic acid anti-4-[(benzo[c][1,2,5]oxadiazole-5-carbonyl)-methyl-amino]-cyclohexyl ester 3-isopentyldisulfanyl-4-[formyl-(D-glucos-6-yl-carbonylmethyl)-amino]-pent-3-enyl ester] | 0.73 | 1.41 | 
7 | CCSS/C(CCOC(=O)CCCC(=O)OC1CCC(N(C)C(=O)c2ccc3nonc3c2)CC1)=C(/C)N(C=O)CC(=O)OCC1OC(O)C(O)C(O)C1O [Compound 20, Pentanedioic acid anti-4-[(benzo[c][1,2,5]oxadiazole-5-carbonyl)-methyl-amino]-cyclohexyl ester 3-ethyldisulfanyl-4-[formyl-(D-glucos-6-yl-carbonylmethyl)-amino]-pent-3-enyl ester] | 0.82 | 1.65 | 
8 | CN(C(=O)c1ccc2nonc2c1)C1CCC(O)CC1 (stereo not drawn) [Compound a, N-(anti-4-hydroxycyclohexyl)-N-methylbenzo[c][1,2,5]oxadiazol-5-yl-carboxamide, reference compound] |  |  | inhibition of hyperactivity [6]: 100%; increase in the amplitude of the field EPSP [1]: 21%; Death rate [2]: 20%
